From article PMC8217813, “Bridging Computational Vaccinology and Vaccine Development Through Systematic Identification, Characterization, and Downselection of Conserved and Variable Circumsporozoite Protein CD4 T Cell Epitopes From Diverse Plasmodium falciparum Strains” (Frontiers in Immunology, 2021)

Tested on: CD4 T cells co-cultured with autologous DCs from PBMCs
Assay type: cell-based, human
Details: for Percentage of donors demonstrating IFN-γ responses, DR1 / Percentage of donors demonstrating IL-2 responses, DR1 / Percentage of donors demonstrating IL-4 responses, DR1 / Percentage of donors demonstrating IL-10 responses, DR1 / Percentage of donors demonstrating TNF-α responses, DR1: DR1 donors N=5; for Percentage of donors demonstrating IFN-γ responses, DR1 / Percentage of donors demonstrating IL-2 responses, DR1 / Percentage of donors demonstrating IL-4 responses, DR1 / Percentage of donors demonstrating IL-10 responses, DR1 / Percentage of donors demonstrating TNF-α responses, DR1 / Percentage of donors demonstrating IFN-γ responses, DR3 / Percentage of donors demonstrating IL-2 responses, DR3 / Percentage of donors demonstrating IL-4 responses, DR3 / Percentage of donors demonstrating IL-10 responses, DR3 / Percentage of donors demonstrating TNF-α responses, DR3 / Percentage of donors demonstrating IFN-γ responses, DR4 / Percentage of donors demonstrating IL-2 responses, DR4 / Percentage of donors demonstrating IL-4 responses, DR4 / Percentage of donors demonstrating IL-10 responses, DR4 / Percentage of donors demonstrating TNF-α responses, DR4 / Percentage of donors demonstrating IFN-γ responses, DR7 / Percentage of donors demonstrating IL-2 responses, DR7 / Percentage of donors demonstrating IL-4 responses, DR7 / Percentage of donors demonstrating IL-10 responses, DR7 / Percentage of donors demonstrating TNF-α responses, DR7 / Percentage of donors demonstrating IFN-γ responses, DR8 / Percentage of donors demonstrating IL-2 responses, DR8 / Percentage of donors demonstrating IL-4 responses, DR8 / Percentage of donors demonstrating IL-10 responses, DR8 / Percentage of donors demonstrating TNF-α responses, DR8 / Percentage of donors demonstrating IFN-γ responses, DR9 / Percentage of donors demonstrating IL-2 responses, DR9 / Percentage of donors demonstrating IL-4 responses, DR9 / Percentage of donors demonstrating IL-10 responses, DR9 / Percentage of donors demonstrating TNF-α responses, DR9 / Percentage of donors demonstrating IFN-γ responses, DR11 / Percentage of donors demonstrating IL-2 responses, DR11 / Percentage of donors demonstrating IL-4 responses, DR11 / Percentage of donors demonstrating IL-10 responses, DR11 / Percentage of donors demonstrating TNF-α responses, DR11 / Percentage of donors demonstrating IFN-γ responses, DR13 / Percentage of donors demonstrating IL-2 responses, DR13 / Percentage of donors demonstrating IL-4 responses, DR13 / Percentage of donors demonstrating IL-10 responses, DR13 / Percentage of donors demonstrating TNF-α responses, DR13 / Percentage of donors demonstrating IFN-γ responses, DR15 / Percentage of donors demonstrating IL-2 responses, DR15 / Percentage of donors demonstrating IL-4 responses, DR15 / Percentage of donors demonstrating IL-10 responses, DR15 / Percentage of donors demonstrating TNF-α responses, DR15: positive = Stimulation Index ≥1.5-fold above baseline, 5 µg/mL peptide; for Percentage of donors demonstrating IFN-γ responses, DR1 / Percentage of donors demonstrating IFN-γ responses, DR3 / Percentage of donors demonstrating IFN-γ responses, DR4 / Percentage of donors demonstrating IFN-γ responses, DR7 / Percentage of donors demonstrating IFN-γ responses, DR8 / Percentage of donors demonstrating IFN-γ responses, DR9 / Percentage of donors demonstrating IFN-γ responses, DR11 / Percentage of donors demonstrating IFN-γ responses, DR13 / Percentage of donors demonstrating IFN-γ responses, DR15: ICCS after 14-day co-culture; for Percentage of donors demonstrating IL-2 responses, DR1 / Percentage of donors demonstrating IL-4 responses, DR1 / Percentage of donors demonstrating IL-10 responses, DR1 / Percentage of donors demonstrating TNF-α responses, DR1 / Percentage of donors demonstrating IL-2 responses, DR3 / Percentage of donors demonstrating IL-4 responses, DR3 / Percentage of donors demonstrating IL-10 responses, DR3 / Percentage of donors demonstrating TNF-α responses, DR3 / Percentage of donors demonstrating IL-2 responses, DR4 / Percentage of donors demonstrating IL-4 responses, DR4 / Percentage of donors demonstrating IL-10 responses, DR4 / Percentage of donors demonstrating TNF-α responses, DR4 / Percentage of donors demonstrating IL-2 responses, DR7 / Percentage of donors demonstrating IL-4 responses, DR7 / Percentage of donors demonstrating IL-10 responses, DR7 / Percentage of donors demonstrating TNF-α responses, DR7 / Percentage of donors demonstrating IL-2 responses, DR8 / Percentage of donors demonstrating IL-4 responses, DR8 / Percentage of donors demonstrating IL-10 responses, DR8 / Percentage of donors demonstrating TNF-α responses, DR8 / Percentage of donors demonstrating IL-2 responses, DR9 / Percentage of donors demonstrating IL-4 responses, DR9 / Percentage of donors demonstrating IL-10 responses, DR9 / Percentage of donors demonstrating TNF-α responses, DR9 / Percentage of donors demonstrating IL-2 responses, DR11 / Percentage of donors demonstrating IL-4 responses, DR11 / Percentage of donors demonstrating IL-10 responses, DR11 / Percentage of donors demonstrating TNF-α responses, DR11 / Percentage of donors demonstrating IL-2 responses, DR13 / Percentage of donors demonstrating IL-4 responses, DR13 / Percentage of donors demonstrating IL-10 responses, DR13 / Percentage of donors demonstrating TNF-α responses, DR13 / Percentage of donors demonstrating IL-2 responses, DR15 / Percentage of donors demonstrating IL-4 responses, DR15 / Percentage of donors demonstrating IL-10 responses, DR15 / Percentage of donors demonstrating TNF-α responses, DR15: ICCS; for Percentage of donors demonstrating IFN-γ responses, DR3 / Percentage of donors demonstrating IL-2 responses, DR3 / Percentage of donors demonstrating IL-4 responses, DR3 / Percentage of donors demonstrating IL-10 responses, DR3 / Percentage of donors demonstrating TNF-α responses, DR3: DR3 donors N=6; for Percentage of donors demonstrating IFN-γ responses, DR4 / Percentage of donors demonstrating IL-2 responses, DR4 / Percentage of donors demonstrating IL-4 responses, DR4 / Percentage of donors demonstrating IL-10 responses, DR4 / Percentage of donors demonstrating TNF-α responses, DR4: DR4 donors N=10; for Percentage of donors demonstrating IFN-γ responses, DR7 / Percentage of donors demonstrating IL-2 responses, DR7 / Percentage of donors demonstrating IL-4 responses, DR7 / Percentage of donors demonstrating IL-10 responses, DR7 / Percentage of donors demonstrating TNF-α responses, DR7: DR7 donors N=4; for Percentage of donors demonstrating IFN-γ responses, DR8 / Percentage of donors demonstrating IL-2 responses, DR8 / Percentage of donors demonstrating IL-4 responses, DR8 / Percentage of donors demonstrating IL-10 responses, DR8 / Percentage of donors demonstrating TNF-α responses, DR8: DR8 donors N=4; for Percentage of donors demonstrating IFN-γ responses, DR9 / Percentage of donors demonstrating IL-2 responses, DR9 / Percentage of donors demonstrating IL-4 responses, DR9 / Percentage of donors demonstrating IL-10 responses, DR9 / Percentage of donors demonstrating TNF-α responses, DR9: DR9 donors N=4; for Percentage of donors demonstrating IFN-γ responses, DR11 / Percentage of donors demonstrating IL-2 responses, DR11 / Percentage of donors demonstrating IL-4 responses, DR11 / Percentage of donors demonstrating IL-10 responses, DR11 / Percentage of donors demonstrating TNF-α responses, DR11: DR11 donors N=4; for Percentage of donors demonstrating IFN-γ responses, DR13 / Percentage of donors demonstrating IL-2 responses, DR13 / Percentage of donors demonstrating IL-4 responses, DR13 / Percentage of donors demonstrating IL-10 responses, DR13 / Percentage of donors demonstrating TNF-α responses, DR13: DR13 donors N=7; for Percentage of donors demonstrating IFN-γ responses, DR15 / Percentage of donors demonstrating IL-2 responses, DR15 / Percentage of donors demonstrating IL-4 responses, DR15 / Percentage of donors demonstrating IL-10 responses, DR15 / Percentage of donors demonstrating TNF-α responses, DR15: DR15 donors N=7

Sequence: DQHIEQYLKTIQNSLSTEWS [ICS4]
- Percentage of donors demonstrating IFN-γ responses, DR1: 0%
- Percentage of donors demonstrating IL-2 responses, DR1: 20%
- Percentage of donors demonstrating IL-4 responses, DR1: 0%
- Percentage of donors demonstrating IL-10 responses, DR1: 0%
- Percentage of donors demonstrating TNF-α responses, DR1: 0%
- Percentage of donors demonstrating IFN-γ responses, DR3: 0%
- Percentage of donors demonstrating IL-2 responses, DR3: 0%
- Percentage of donors demonstrating IL-4 responses, DR3: 17%
- Percentage of donors demonstrating IL-10 responses, DR3: 0%
- Percentage of donors demonstrating TNF-α responses, DR3: 0%
- Percentage of donors demonstrating IFN-γ responses, DR4: 30%
- Percentage of donors demonstrating IL-2 responses, DR4: 20%
- Percentage of donors demonstrating IL-4 responses, DR4: 0%
- Percentage of donors demonstrating IL-10 responses, DR4: 10%
- Percentage of donors demonstrating TNF-α responses, DR4: 30%
- Percentage of donors demonstrating IFN-γ responses, DR7: 0%
- Percentage of donors demonstrating IL-2 responses, DR7: 0%
- Percentage of donors demonstrating IL-4 responses, DR7: 0%
- Percentage of donors demonstrating IL-10 responses, DR7: 0%
- Percentage of donors demonstrating TNF-α responses, DR7: 0%
- Percentage of donors demonstrating IFN-γ responses, DR8: 0%
- Percentage of donors demonstrating IL-2 responses, DR8: 0%
- Percentage of donors demonstrating IL-4 responses, DR8: 0%
- Percentage of donors demonstrating IL-10 responses, DR8: 0%
- Percentage of donors demonstrating TNF-α responses, DR8: 0%
- Percentage of donors demonstrating IFN-γ responses, DR9: 0%
- Percentage of donors demonstrating IL-2 responses, DR9: 0%
- Percentage of donors demonstrating IL-4 responses, DR9: 0%
- Percentage of donors demonstrating IL-10 responses, DR9: 0%
- Percentage of donors demonstrating TNF-α responses, DR9: 0%
- Percentage of donors demonstrating IFN-γ responses, DR11: 0%
- Percentage of donors demonstrating IL-2 responses, DR11: 25%
- Percentage of donors demonstrating IL-4 responses, DR11: 0%
- Percentage of donors demonstrating IL-10 responses, DR11: 0%
- Percentage of donors demonstrating TNF-α responses, DR11: 0%
- Percentage of donors demonstrating IFN-γ responses, DR13: 0%
- Percentage of donors demonstrating IL-2 responses, DR13: 0%
- Percentage of donors demonstrating IL-4 responses, DR13: 14%
- Percentage of donors demonstrating IL-10 responses, DR13: 0%
- Percentage of donors demonstrating TNF-α responses, DR13: 0%
- Percentage of donors demonstrating IFN-γ responses, DR15: 29%
- Percentage of donors demonstrating IL-2 responses, DR15: 14%
- Percentage of donors demonstrating IL-4 responses, DR15: 0%
- Percentage of donors demonstrating IL-10 responses, DR15: 0%
- Percentage of donors demonstrating TNF-α responses, DR15: 29%
- median SI, IFN-γ recall responses (median stimulation index across donors, response with peptide divided by response with no peptide): 0.74

Sequence: DQHIEKYLKTIKNSLSTEWS [ICS10]
- Percentage of donors demonstrating IFN-γ responses, DR1: 20%
- Percentage of donors demonstrating IL-2 responses, DR1: 0%
- Percentage of donors demonstrating IL-4 responses, DR1: 0%
- Percentage of donors demonstrating IL-10 responses, DR1: 0%
- Percentage of donors demonstrating TNF-α responses, DR1: 0%
- Percentage of donors demonstrating IFN-γ responses, DR3: 33%
- Percentage of donors demonstrating IL-2 responses, DR3: 17%
- Percentage of donors demonstrating IL-4 responses, DR3: 17%
- Percentage of donors demonstrating IL-10 responses, DR3: 0%
- Percentage of donors demonstrating TNF-α responses, DR3: 17%
- Percentage of donors demonstrating IFN-γ responses, DR4: 40%
- Percentage of donors demonstrating IL-2 responses, DR4: 30%
- Percentage of donors demonstrating IL-4 responses, DR4: 0%
- Percentage of donors demonstrating IL-10 responses, DR4: 10%
- Percentage of donors demonstrating TNF-α responses, DR4: 10%
- Percentage of donors demonstrating IFN-γ responses, DR7: 75%
- Percentage of donors demonstrating IL-2 responses, DR7: 25%
- Percentage of donors demonstrating IL-4 responses, DR7: 0%
- Percentage of donors demonstrating IL-10 responses, DR7: 25%
- Percentage of donors demonstrating TNF-α responses, DR7: 25%
- Percentage of donors demonstrating IFN-γ responses, DR8: 0%
- Percentage of donors demonstrating IL-2 responses, DR8: 0%
- Percentage of donors demonstrating IL-4 responses, DR8: 0%
- Percentage of donors demonstrating IL-10 responses, DR8: 0%
- Percentage of donors demonstrating TNF-α responses, DR8: 0%
- Percentage of donors demonstrating IFN-γ responses, DR9: 25%
- Percentage of donors demonstrating IL-2 responses, DR9: 25%
- Percentage of donors demonstrating IL-4 responses, DR9: 0%
- Percentage of donors demonstrating IL-10 responses, DR9: 0%
- Percentage of donors demonstrating TNF-α responses, DR9: 25%
- Percentage of donors demonstrating IFN-γ responses, DR11: 50%
- Percentage of donors demonstrating IL-2 responses, DR11: 50%
- Percentage of donors demonstrating IL-4 responses, DR11: 0%
- Percentage of donors demonstrating IL-10 responses, DR11: 0%
- Percentage of donors demonstrating TNF-α responses, DR11: 25%
- Percentage of donors demonstrating IFN-γ responses, DR13: 29%
- Percentage of donors demonstrating IL-2 responses, DR13: 14%
- Percentage of donors demonstrating IL-4 responses, DR13: 0%
- Percentage of donors demonstrating IL-10 responses, DR13: 0%
- Percentage of donors demonstrating TNF-α responses, DR13: 14%
- Percentage of donors demonstrating IFN-γ responses, DR15: 57%
- Percentage of donors demonstrating IL-2 responses, DR15: 14%
- Percentage of donors demonstrating IL-4 responses, DR15: 14%
- Percentage of donors demonstrating IL-10 responses, DR15: 0%
- Percentage of donors demonstrating TNF-α responses, DR15: 14%
